Experimental data taken from patent US7560473B2 (Institute of Pharmacology and Toxicology Academy of …, priority 2001, dated 2009).
Marks after values point to notes of the source that are not given here.

Tests used:
[1] = target: T1, ATP-sensitive potassium channels in vascular smooth muscles (Rattus norvegicus, UniProt Q63563); assay: Association and dissociation kinetics of [^3H]glibenclamide binding in aortic rings; parameters: species or system Wistar rat; settings: drug M: compound 1 10^−4, pinacidil 10^−4, ATP 10^−2, ADP 10^−3, UDP 5 × 10^−3, Ade 10^−3; for Dissociation kinetics k2 of [^3H]glibenclamide binding / Association kinetics k1 of [^3H]glibenclamide binding / Association kinetics kobs of [^3H]glibenclamide binding / Association kinetics kA of [^3H]glibenclamide binding: 25° C.; for Dissociation kinetics k2 of [^3H]glibenclamide binding: control 0.72 ± 0.11; for Dissociation kinetics Kd of [^3H]glibenclamide binding in presence of the drug: Kd of the radioligand, not of the drug, control 0.55 ± 0.14; for Association kinetics k1 of [^3H]glibenclamide binding / Association kinetics kobs of [^3H]glibenclamide binding / Association kinetics kA of [^3H]glibenclamide binding: [^3H]-glibenclamide 3 nM; for Association kinetics k1 of [^3H]glibenclamide binding: control 1.31 ± 0.14; for Association kinetics kobs of [^3H]glibenclamide binding: control 4.65 ± 0.37, means ± SD, n = 4~10; for Association kinetics kA of [^3H]glibenclamide binding: control 181.90 ± 46.90
T1 construct: The aorta was cut into about 3-5 mm arterial rings and the vascular endothelium was scraped off; from tissue; host or cells: endothelium-removed aortic rings of male Wistar rats
Description: (§1) Biological activity experiment 4. Allosteric regulation of novel compounds on ATP-sensitive potassium channels in vascular smooth muscles.
(§2) To study the allosteric regulation of compound 1 on ATP-sensitive potassium channels in vascular smooth muscles, the radio-labled-ligand was used in the biological activity experiment 4.
1. The allosteric regulation of compound 1 on the binding sites for the selective KATP blocker glibenclamide in vascular smooth muscles was studied as follows: After decapitated, the male Wistar rat (340±20 g) was immediately incised open the thoracic cavity. The aorta was dissected and immersed in the 4° C. buffer containing 10 mM HEPES to wash off the blood, then carefully extirpated the fat, peripheral connective tissues and thrombus. The aorta was cut into about 3-5 mm arterial rings and the vascular endothelium was scraped off with wet tampon. The arterial rings were blotted, weighted and transferred into the tubes containing proper amount of ice colded physiological saline buffer. […] At 5,10,15,20,30,60,90 and 120 min after incubation, 9 mL ice colded Tris buffer (50 mM) was added to terminate the reaction. After washing off the free and bound [^3H]-glibenclamide, the aorta was blotted, transferred to a scintillator, added 50 uL 30% H2O2 and reacted for 2 h at 80° C. After cooling, 2.5 mL ethyl glycol and 5 mL 1% B-BPD xylene were added in sequence, kept stationary for 8 h and measured under a scintillometer for cpm value. The resulting data were fit into a regression line with In[BEQ/(BEQ-Bt)]vs.t and the parameters for association kinetics were obtained. In the disassociation kinetics experiments, the aorta treated as described above and [^3H]-glibenclamide were incubated for 60 min at 25° C., and then 30 uM glibenclamide was added. 0,5,15,30,60,90 and 120 min later, the cpm values for the complex of [^3H]-glibenclamide and KATP were measured. The resulting data were fit into a regression line with In(B/BEQ)]vs.t and the parameters for disassociation kinetics were obtained. 2. The allosteric regulation of compound 1 on the binding sites for the selective KATP activator P1075 in vascular smooth muscles was studied with the method as described above, but some conditions should be changed as follows: the incubation temperature was 37° C. instead of 25° C.;P1075 was used instead of glibenclamide; In the association kinetics experiments, the time points for sampling were 5,10,15,20,30,45,60 and 90 min, while in the disassociation kinetics experiments, that were 1,3,5,10,20,30,45 and 60 min. Biological activity experiment 5. The effects of compound 1 on the specific binding of high selective activator [^3H]P1075 with ATP-sensitive potassium channels in vascular smooth muscles.

[2] = target: T1, ATP-sensitive potassium channels in vascular smooth muscles; assay: Association kinetics of [^3H]P1075 binding in aortic rings; parameters: species or system Wistar rat; settings: 37° C.; drug M: Compound 1 10^−4, Glibencamide 10^−5, ATP 10^−2, ADP 10^−3, UDP 5 × 10^−5, GTP 10^−3, Ade 10^−3; control 4.36 ± 0.45; means ± SD, n = 4~10
Description: as §1, §2
1. The allosteric regulation of compound 1 on the binding sites for the selective KATP blocker glibenclamide in vascular smooth muscles was studied as follows: After decapitated, the male Wistar rat (340±20 g) was immediately incised open the thoracic cavity. The aorta was dissected and immersed in the 4° C. buffer containing 10 mM HEPES to wash off the blood, then carefully extirpated the fat, peripheral connective tissues and thrombus. The aorta was cut into about 3-5 mm arterial rings and the vascular endothelium was scraped off with wet tampon. The arterial rings were blotted, weighted and transferred into the tubes containing proper amount of ice colded physiological saline buffer. In the association kinetics experiment, the arterial circles in the tubes were incubated with, compound 1(10^−4M), pinacidil(10^−4M), ATP(10^−2M), ADP(10^−3M), Ade(10^−3M), […] and equal volume of buffer respectively for 10 min in 25° C. water bath, and then added [^3H]-glibenclamide(3 nM). At 5,10,15,20,30,60,90 and 120 min after incubation, 9 mL ice colded Tris buffer (50 mM) was added to terminate the reaction. After washing off the free and bound [^3H]-glibenclamide, the aorta was blotted, transferred to a scintillator, added 50 uL 30% H2O2 and reacted for 2 h at 80° C. After cooling, 2.5 mL ethyl glycol and 5 mL 1% B-BPD xylene were added in sequence, kept stationary for 8 h and measured under a scintillometer for cpm value. The resulting data were fit into a regression line with In[BEQ/(BEQ-Bt)]vs.t and the parameters for association kinetics were obtained. In the disassociation kinetics experiments, the aorta treated as described above and [^3H]-glibenclamide were incubated for 60 min at 25° C., and then 30 uM glibenclamide was added. 0,5,15,30,60,90 and 120 min later, the cpm values for the complex of [^3H]-glibenclamide and KATP were measured. The resulting data were fit into a regression line with In(B/BEQ)]vs.t and the parameters for disassociation kinetics were obtained. 2. The allosteric regulation of compound 1 on the binding sites for the selective KATP activator P1075 in vascular smooth muscles was studied with the method as described above, but some conditions should be changed as follows: the incubation temperature was 37° C. instead of 25° C.;P1075 was used instead of glibenclamide; In the association kinetics experiments, the time points for sampling were 5,10,15,20,30,45,60 and 90 min, while in the disassociation kinetics experiments, that were 1,3,5,10,20,30,45 and 60 min. Biological activity experiment 5. The effects of compound 1 on the specific binding of high selective activator [^3H]P1075 with ATP-sensitive potassium channels in vascular smooth muscles.

SHRsp = assay: Prophylaxis and treatment of SHRsp cerebral apoplexy; assay type: in vivo, rats; settings: 40 mg · kg^−1d^−1 fed
Protocol: Biological activity experiment 8 the prophylaxis and treatment of cerebral apoplexy with compound 1 of formula Ia
The methods of biological activity experiments were carried out as follows: Desired concentration of compound 1 was prepared with distilled water, while desired concentration of nimodipine was prepared with market available Jinglongyu^T oil. 30 male and 30 female SHRsp (10 weeks old, 120-180 g) were purchased from the vascular disease research center of Academy of Military Medical Science. All SHRsp were divided randomly into five groups based on blood pressure, body weight and sex: control group (fed with equal amount of Jinglongyu^T oil), […], […], […], and 4.0 mg.kg^−1d^−1 nimodipine treated group. Each group contained 12 animals and 4-5 animals were fed in a cage. The feedstaff (containing 23-24% protein) was purchased from experimental animal center of Academy of Military Medical Science. The animals were fed with tap water containing 1% NaCl to accelerate the onset of cerebral apoplexy. 12 normal WKY rats (with the same age and sex with the above) were selected as control, and fed with tap water and the same feedstuff. When reached 11 weeks old, the animals were fed with drugs for experiments.

[3] = target: T1, ATP-sensitive potassium channels in vascular smooth muscles; assay: Inhibition of specific binding of [^3H]P1075 in endothelium-removed rat aorta; parameters: species or system Wistar rat; settings: [^3H] P1075 5 nmol L^−1, 90 minutes at 37° C., endothelium-removed rat aorta

T1 sequence (Q63563 1-1545 isoform Q63563-2): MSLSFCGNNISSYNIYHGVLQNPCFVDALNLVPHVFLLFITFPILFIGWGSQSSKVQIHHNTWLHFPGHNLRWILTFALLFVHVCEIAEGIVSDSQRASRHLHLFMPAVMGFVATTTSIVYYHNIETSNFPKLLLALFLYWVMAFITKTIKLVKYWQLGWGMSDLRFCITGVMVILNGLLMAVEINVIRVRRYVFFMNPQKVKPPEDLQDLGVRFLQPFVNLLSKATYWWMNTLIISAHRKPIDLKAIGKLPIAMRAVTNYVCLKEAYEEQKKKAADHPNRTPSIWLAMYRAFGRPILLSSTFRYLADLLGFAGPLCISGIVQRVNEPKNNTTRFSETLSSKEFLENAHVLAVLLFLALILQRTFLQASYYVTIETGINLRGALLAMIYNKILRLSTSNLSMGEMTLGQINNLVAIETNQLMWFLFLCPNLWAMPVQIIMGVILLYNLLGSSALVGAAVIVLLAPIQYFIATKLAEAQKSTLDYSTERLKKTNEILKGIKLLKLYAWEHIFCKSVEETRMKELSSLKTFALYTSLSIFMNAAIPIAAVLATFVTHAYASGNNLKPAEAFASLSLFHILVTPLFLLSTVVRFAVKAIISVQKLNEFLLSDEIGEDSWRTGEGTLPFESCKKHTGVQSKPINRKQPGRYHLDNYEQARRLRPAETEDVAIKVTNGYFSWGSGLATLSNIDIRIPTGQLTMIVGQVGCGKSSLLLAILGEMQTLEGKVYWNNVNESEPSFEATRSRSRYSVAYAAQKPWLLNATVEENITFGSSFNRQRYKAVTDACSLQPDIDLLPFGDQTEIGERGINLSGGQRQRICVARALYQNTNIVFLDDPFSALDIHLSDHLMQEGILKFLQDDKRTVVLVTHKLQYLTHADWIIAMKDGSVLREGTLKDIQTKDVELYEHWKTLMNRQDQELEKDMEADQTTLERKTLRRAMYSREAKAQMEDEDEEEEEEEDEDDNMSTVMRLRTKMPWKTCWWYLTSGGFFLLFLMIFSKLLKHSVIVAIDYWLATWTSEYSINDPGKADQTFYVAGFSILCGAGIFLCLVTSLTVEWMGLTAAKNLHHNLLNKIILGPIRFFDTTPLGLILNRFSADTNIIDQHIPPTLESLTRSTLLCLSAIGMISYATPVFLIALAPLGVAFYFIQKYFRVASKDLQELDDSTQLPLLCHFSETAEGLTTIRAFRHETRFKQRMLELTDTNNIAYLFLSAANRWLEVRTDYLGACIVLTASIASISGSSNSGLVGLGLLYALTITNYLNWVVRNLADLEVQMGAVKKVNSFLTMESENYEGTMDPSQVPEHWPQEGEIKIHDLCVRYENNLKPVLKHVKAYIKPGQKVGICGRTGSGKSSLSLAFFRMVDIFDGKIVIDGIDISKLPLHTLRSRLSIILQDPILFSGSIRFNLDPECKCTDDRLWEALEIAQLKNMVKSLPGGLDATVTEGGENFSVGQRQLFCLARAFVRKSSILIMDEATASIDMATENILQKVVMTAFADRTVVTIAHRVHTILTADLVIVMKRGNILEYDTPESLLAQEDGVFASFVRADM
T1 sequence (Q63664 whole entry partner): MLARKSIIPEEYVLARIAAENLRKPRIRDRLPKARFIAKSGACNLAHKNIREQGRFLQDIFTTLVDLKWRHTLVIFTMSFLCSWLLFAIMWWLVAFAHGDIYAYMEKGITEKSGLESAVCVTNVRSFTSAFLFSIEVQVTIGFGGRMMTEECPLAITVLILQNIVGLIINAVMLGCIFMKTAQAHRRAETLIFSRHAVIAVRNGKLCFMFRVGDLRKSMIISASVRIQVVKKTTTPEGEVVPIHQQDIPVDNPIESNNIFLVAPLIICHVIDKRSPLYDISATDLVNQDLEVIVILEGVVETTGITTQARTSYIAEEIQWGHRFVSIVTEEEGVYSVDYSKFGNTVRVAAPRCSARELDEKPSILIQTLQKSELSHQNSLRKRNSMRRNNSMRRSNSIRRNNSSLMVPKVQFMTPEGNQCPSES

| Compound | Dissociation kinetics k2 of [^3H]glibenclamide binding [1] | Dissociation kinetics Kd of [^3H]glibenclamide binding in presence of the drug [1] | Association kinetics k1 of [^3H]glibenclamide binding [1] | Association kinetics kobs of [^3H]glibenclamide binding [1] | Association kinetics kA of [^3H]glibenclamide binding [1] | Association kinetics kobs of [^3H]P1075 binding [2] | other results |
| --- | --- | --- | --- | --- | --- | --- | --- |
| Nc1ncnc2c1ncn2[C@@H]1O[C@H](COP(=O)(O)OP(=O)(O)O)[C@@H](O)[C@H]1O [ADP] | 0.94 ± 0.10 ×10^2 nM^−1 · min^−1 | 2.09 ± 1.12 nM | 0.45 ± 0.24 ×10^−2nM^−1 · min^−1 | 2.28 ± 0.70 ×10^−2nM^−1 · min^−1 | 47.80 ± 25.70 ×10^−2nM^−1 · min^−1 | 2.63 ± 0.48 ×10^−2 nM^−1 · min^−1 | – |
| Nc1ncnc2c1ncn2[C@@H]1O[C@H](COP(=O)(O)OP(=O)(O)OP(=O)(O)O)[C@@H](O)[C@H]1O [ATP, adenosine triphosphate] | 0.42 ± 0.14 ×10^2 nM^−1 · min^−1 | 0.17 ± 0.06 nM | 2.42 ± 0.34 ×10^−2nM^−1 · min^−1 | 7.69 ± 1.01 ×10^−2nM^−1 · min^−1 | 590.2 ± 208.20 ×10^−2nM^−1 · min^−1 | 2.85 ± 0.08 ×10^−2 nM^−1 · min^−1 | – |
| Nc1nc2c(ncn2[C@@H]2O[C@H](COP(=O)(O)OP(=O)(O)OP(=O)(O)O)[C@@H](O)[C@H]2O)c(=O)[nH]1 [GTP] | – | – | – | – | – | 3.86 ± 0.19 ×10^−2 nM^−1 · min^−1 | – |
| COCCOC(=O)C1=C(C)NC(C)=C(C(=O)OC(C)C)C1c1cccc([N+](=O)[O-])c1 (stereo not drawn) [Nimodipine, nimodipine, reference compound] | – | – | – | – | – | – | Survival time (SHRsp; control 4.6 ± 3.8, means ± SD): 11.1 ± 2.7 days; Period needed for onset of cerebral apoplexy (SHRsp; control 48.3 ± 7.4, means ± SD): 66.0 ± 14.8 days; Death rate of cerebral apoplexy (SHRsp; n 12, control 50.0): 9.1* %; Rate of cerebral apoplexy (SHRsp; n 12, control 83.3): 36.4* % |
| CCC(C)(C)N=C(NC#N)Nc1cccnc1 [P1075, reference compound] | – | – | – | – | – | – | IC50 [3]: 9.1 ± 1.3 nM |
| O=c1ccn([C@@H]2O[C@H](COP(=O)(O)OP(=O)(O)O)[C@@H](O)[C@H]2O)c(=O)[nH]1 [UDP] | 0.80 ± 0.22 ×10^2 nM^−1 · min^−1 | 0.70 ± 0.24 nM | 1.15 ± 0.23 ×10^−2nM^−1 · min^−1 | 4.26 ± 0.65 ×10^−2nM^−1 · min^−1 | 143.50 ± 49.00 ×10^−2nM^−1 · min^−1 | 5.53 ± 0.51 ×10^−2 nM^−1 · min^−1 | – |
| COc1ccc(Cl)cc1C(=O)NCCc1ccc(S(=O)(=O)NC(=O)NC2CCCCC2)cc1 [glibenclamide, reference compound] | – | – | – | – | – | 3.12 ± 0.17 ×10^−2 nM^−1 · min^−1 | IC50 [3]: 58900 ± 4600 nM; Ki ([3]; read-out: pKi for inhibition of specific binding of [^3H]P1075 (converted)): 58900 nM |
